Legend:
[1] = molecular target: T1, JAK3 (Homo sapiens, UniProt P52333); assay: JAK3 Inhibition Assay; type: biochemical; details: 5 μM ATP, 1 μM poly(Glu)4Tyr, 1 nM JAK3, 25° C.
T1 sequence (P52333 1-1124): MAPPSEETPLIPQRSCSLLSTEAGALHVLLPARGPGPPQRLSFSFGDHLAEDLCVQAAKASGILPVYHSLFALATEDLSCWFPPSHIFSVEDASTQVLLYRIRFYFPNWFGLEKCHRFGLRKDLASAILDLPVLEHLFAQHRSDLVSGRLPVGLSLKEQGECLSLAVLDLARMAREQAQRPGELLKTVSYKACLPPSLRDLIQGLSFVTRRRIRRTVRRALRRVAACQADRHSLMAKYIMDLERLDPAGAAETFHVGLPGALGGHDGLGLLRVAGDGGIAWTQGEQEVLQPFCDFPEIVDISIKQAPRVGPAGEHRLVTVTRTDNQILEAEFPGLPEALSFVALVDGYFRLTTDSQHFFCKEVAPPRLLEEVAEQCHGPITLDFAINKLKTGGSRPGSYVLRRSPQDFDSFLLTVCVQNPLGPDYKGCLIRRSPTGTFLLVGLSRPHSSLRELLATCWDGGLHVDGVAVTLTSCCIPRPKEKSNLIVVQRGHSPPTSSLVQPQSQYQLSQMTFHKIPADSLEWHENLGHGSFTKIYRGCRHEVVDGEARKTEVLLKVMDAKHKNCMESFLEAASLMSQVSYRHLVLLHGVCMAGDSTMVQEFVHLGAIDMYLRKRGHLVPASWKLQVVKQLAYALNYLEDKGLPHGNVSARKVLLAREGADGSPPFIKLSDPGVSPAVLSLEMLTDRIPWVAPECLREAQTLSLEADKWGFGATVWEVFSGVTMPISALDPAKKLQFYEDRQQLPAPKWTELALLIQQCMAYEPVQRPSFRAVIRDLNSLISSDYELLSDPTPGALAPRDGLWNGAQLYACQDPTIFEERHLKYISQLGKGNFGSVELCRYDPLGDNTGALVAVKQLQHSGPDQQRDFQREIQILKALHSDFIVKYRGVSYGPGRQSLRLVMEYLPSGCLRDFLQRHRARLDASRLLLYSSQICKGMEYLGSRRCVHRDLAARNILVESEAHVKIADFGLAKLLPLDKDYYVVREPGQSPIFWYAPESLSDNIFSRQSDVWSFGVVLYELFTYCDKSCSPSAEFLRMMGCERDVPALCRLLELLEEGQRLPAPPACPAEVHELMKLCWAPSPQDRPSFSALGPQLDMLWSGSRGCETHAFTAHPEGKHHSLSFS
Method: (§1) Compounds were screened for their ability to inhibit JAK3 using the assay shown below. Reactions were carried out in a kinase buffer containing 100 mM HEPES (pH 7.4), 1 mM DTT, 10 mM MgCl2, 25 mM NaCl, and 0.01% BSA. Substrate concentrations in the assay were 5 μM ATP (200 uCi/μmole ATP) and 1 μM poly(Glu)4Tyr. Reactions were carried out at 25° C. and 1 nM JAK3.
(§2) To each well of a 96 well polycarbonate plate was added 1.5 μl of a candidate JAK3 inhibitor along with 50 μl of kinase buffer containing […] and 10 μM ATP. This was then mixed and 50 μl of kinase buffer containing 2 nM JAK3 enzyme was added to start the reaction. After 20 minutes at room temperature (25° C.), the reaction was stopped with 50 μl of 20% trichloroacetic acid (TCA) that also contained 0.4 mM ATP. The entire contents of each well were then transferred to a 96 well glass fiber filter plate using a TomTek Cell Harvester. After washing, 60 μl of scintillation fluid was added and ^33P incorporation detected on a Perkin Elmer TopCount.

[2] = molecular target: JAK-2 enzyme (Homo sapiens, UniProt O60674); assay: JAK2 Inhibition Assay; type: biochemical; details: 12 μM ATP, 15 μM poly(Glu)4Tyr
Sequence of JAK-2 enzyme (O60674 whole entry): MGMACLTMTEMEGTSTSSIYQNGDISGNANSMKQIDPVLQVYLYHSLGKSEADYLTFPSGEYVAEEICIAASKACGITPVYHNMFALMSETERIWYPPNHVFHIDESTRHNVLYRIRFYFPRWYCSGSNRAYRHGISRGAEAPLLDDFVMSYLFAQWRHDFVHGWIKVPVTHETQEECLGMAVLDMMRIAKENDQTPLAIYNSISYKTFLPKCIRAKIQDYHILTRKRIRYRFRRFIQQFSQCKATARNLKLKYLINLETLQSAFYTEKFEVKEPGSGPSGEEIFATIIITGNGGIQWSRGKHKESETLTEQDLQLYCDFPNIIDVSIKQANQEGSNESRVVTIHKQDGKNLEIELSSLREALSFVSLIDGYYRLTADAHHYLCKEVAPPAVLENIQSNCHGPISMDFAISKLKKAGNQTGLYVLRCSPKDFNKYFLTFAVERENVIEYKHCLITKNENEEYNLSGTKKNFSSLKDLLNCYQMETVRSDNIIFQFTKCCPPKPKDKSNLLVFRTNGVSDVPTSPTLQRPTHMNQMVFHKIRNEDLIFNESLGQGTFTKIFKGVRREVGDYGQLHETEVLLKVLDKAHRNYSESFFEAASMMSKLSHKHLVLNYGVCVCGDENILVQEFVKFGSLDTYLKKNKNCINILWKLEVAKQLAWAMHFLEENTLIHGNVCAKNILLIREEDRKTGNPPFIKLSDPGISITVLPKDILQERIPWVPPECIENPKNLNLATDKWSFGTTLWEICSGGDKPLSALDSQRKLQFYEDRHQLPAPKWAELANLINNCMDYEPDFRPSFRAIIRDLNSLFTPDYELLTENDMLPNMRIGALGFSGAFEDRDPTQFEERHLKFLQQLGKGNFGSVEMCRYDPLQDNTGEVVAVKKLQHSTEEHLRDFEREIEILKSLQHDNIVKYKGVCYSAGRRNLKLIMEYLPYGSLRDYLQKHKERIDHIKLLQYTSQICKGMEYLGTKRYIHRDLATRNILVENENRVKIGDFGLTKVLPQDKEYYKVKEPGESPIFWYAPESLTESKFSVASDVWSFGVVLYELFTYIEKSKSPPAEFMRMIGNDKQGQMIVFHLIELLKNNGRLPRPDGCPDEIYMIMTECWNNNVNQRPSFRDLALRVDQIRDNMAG
Method: as §1, §2
The assays were as described above in Example 3 except that JAK-2 enzyme was used, the final poly(Glu)4Tyr concentration was 15 μM, and final ATP concentration was 12 μM.

SMILES: COC(=O)c1cc(N2CCC[C@@H]2C(=O)NCC(F)(F)F)nc(-c2c[nH]c3ncc(Cl)cc23)n1 [Compound 35]
- Ki [1]: ≥ 100 nM
- Ki [2]: ≥ 500 nM

SMILES: CC(C)CC(=O)N1CCN(c2ccnc(-c3c[nH]c4ncccc34)n2)[C@@H](C(=O)NCC(F)(F)F)C1 [Compound 369]
- Ki [1]: ≥ 100 nM

SMILES: CN(CC(F)(F)F)C(=O)[C@H]1CCCN1c1nc(-c2c[nH]c3ncccc23)ncc1O [Compound 339]
- Ki [1]: ≥ 100 nM
- Ki [2]: ≥ 500 nM

SMILES: CCCNC(=O)c1cc(N2CCC[C@@H]2C(=O)NCC(F)(F)F)nc(-c2c[nH]c3ncc(Cl)cc23)n1 [Compound 319]
- Ki [1]: ≥ 2000 nM
- Ki [2]: ≥ 5000 nM

SMILES: CN(c1nc(-c2c[nH]c3ncccc23)ncc1F)C1(C(=O)NCC(F)(F)F)CC1 [Compound 356]
- Ki [1]: ≥ 100 nM
- Ki [2]: ≥ 500 nM

SMILES: CCN(C)C(=O)[C@H]1CCCN1c1nc(-c2c[nH]c3ncc(Cl)cc23)ncc1F [Compound 336]
- Ki [1]: ≥ 100 nM
- Ki [2]: ≥ 500 nM

SMILES: O=C(O)c1cnc(-c2c[nH]c3ncc(Cl)cc23)nc1N1CCC[C@@H]1C(=O)NCC(F)(F)F [Compound 56]
- Ki [1]: ≥ 100 nM
- Ki [2]: ≥ 500 nM

SMILES: O=C(NCC(F)(F)F)[C@@H]1CCCCN1c1nc(-c2c[nH]c3ncc(Cl)cc23)ncc1F [Compound 68]
- Ki [1]: ≥ 2000 nM
- Ki [2]: ≥ 5000 nM

SMILES: O=C(NC1CC1)[C@H]1CCCN1c1nc(-c2c[nH]c3ncc(Cl)cc23)ncc1F [Compound 177]
- Ki [1]: ≥ 100 nM

SMILES: CCOC(=O)c1cnc(-c2c[nH]c3ncc(Cl)cc23)nc1N1CCC[C@@H]1C(=O)N(C)CC(F)(F)F [Compound 338]
- Ki [1]: ≥ 100 nM
- Ki [2]: ≥ 500 nM

SMILES: O=C(NCC(F)(F)F)[C@H]1C[C@H](O)CN1c1nc(-c2c[nH]c3ncccc23)ncc1F [Compound 351]
- Ki [1]: ≥ 100 nM
- Ki [2]: ≥ 500 nM

SMILES: O=C(NCC(F)(F)F)[C@@H]1CNCCN1c1nc(-c2c[nH]c3ncccc23)ncc1F [Compound 321]
- Ki [1]: ≥ 100 nM
- Ki [2]: ≥ 500 nM

SMILES: O=C(NCC(F)(F)F)C1COCCN1c1nc(-c2c[nH]c3ncc(Cl)cc23)ncc1F (stereo not drawn) [Compound 38]
- Ki [2]: ≥ 500 nM

SMILES: CCCNC(=O)N1CCN(c2ccnc(-c3c[nH]c4ncccc34)n2)[C@@H](C(=O)NCC(F)(F)F)C1 [Compound 372]
- Ki [2]: ≥ 500 nM

SMILES: O=C(NC1CC1)c1cc(N2CCC[C@@H]2C(=O)NCC(F)(F)F)nc(-c2c[nH]c3ncc(Cl)cc23)n1 [Compound 320]
- Ki [1]: ≥ 100 nM
- Ki [2]: ≥ 500 nM

SMILES: CNC(=O)c1cc(N2CCC[C@@H]2C(=O)NCC(F)(F)F)nc(-c2c[nH]c3ncc(Cl)cc23)n1 [Compound 317]
- Ki [1]: ≥ 100 nM
- Ki [2]: ≥ 500 nM

SMILES: O=C(NCC(F)(F)F)[C@@H]1CCCN1c1nc(-c2c[nH]c3ncccc23)ncc1F [Compound 310]
- Ki [1]: ≥ 100 nM
- Ki [2]: ≥ 500 nM

SMILES: CC(C)[C@@H](Nc1nc(-c2c[nH]c3ncccc23)ncc1F)C(=O)NCC(F)(F)F [Compound 367]
- Ki [1]: ≥ 100 nM
- Ki [2]: ≥ 500 nM

SMILES: CCC(CC)(Nc1ccnc(-c2c[nH]c3ncccc23)n1)C(=O)NCC(F)(F)F [Compound 348]
- Ki [2]: ≥ 500 nM

SMILES: COc1cc2nc(-c3c[nH]c4ncccc34)nc(NC(C)(C)C(=O)NCCF)c2cc1OC [Compound 388]
- Ki [1]: ≥ 100 nM

SMILES: CCNC(=O)c1cc(N2CCC[C@@H]2C(=O)NCC(F)(F)F)nc(-c2c[nH]c3ncc(Cl)cc23)n1 [Compound 318]
- Ki [1]: ≥ 100 nM
- Ki [2]: ≥ 5000 nM

SMILES: CC(C)(Nc1nc(-c2c[nH]c3ncc(Cl)cc23)ncc1C#N)C(=O)NCCC(F)(F)F [Compound 326]
- Ki [1]: ≥ 100 nM

SMILES: CCN(C)C(=O)[C@H]1CCCN1c1ccnc(-c2c[nH]c3ncc(Cl)cc23)n1 [Compound 337]
- Ki [1]: ≥ 100 nM

SMILES: CC(C)NC(=O)[C@H]1CCCN1c1nc(-c2c[nH]c3ncc(Cl)cc23)ncc1F [Compound 322]
- Ki [1]: ≥ 100 nM

SMILES: CC(C)(C)CC(=O)N1CCN(c2ccnc(-c3c[nH]c4ncccc34)n2)[C@@H](C(=O)NCC(F)(F)F)C1 [Compound 370]
- Ki [1]: ≥ 100 nM

SMILES: C[C@H]1CCN(c2nc(-c3c[nH]c4ncc(Cl)cc34)ncc2F)[C@@H]1C(=O)NCC(F)(F)F [Compound 9]
- Ki [2]: ≥ 500 nM

SMILES: CCOC(=O)c1cnc(-c2c[nH]c3ncc(Cl)cc23)nc1N1CCC[C@@H]1C(=O)NCC(F)(F)F [Compound 57]
- Ki [2]: ≥ 500 nM

SMILES: CC(C)C[C@@H](Nc1nc(-c2cn(C)c3ncc(Cl)cc23)ncc1F)C(=O)NCC(F)(F)F [Compound 22]
- Ki [1]: ≥ 100 nM
- Ki [2]: ≥ 500 nM

SMILES: COc1cc2nc(-c3c[nH]c4ncccc34)nc(NC(C)(C)C(=O)NCC(F)F)c2cc1OC [Compound 390]
- Ki [1]: ≥ 100 nM

SMILES: CCCNC(=O)C(C)(C)Nc1nc(-c2c[nH]c3ncc(Cl)cc23)nc2cc(OC)c(OC)cc12 [Compound 223]
- Ki [1]: ≥ 100 nM

SMILES: CN(CC(F)(F)F)C(=O)[C@H]1CCCN1c1nc(-c2c[nH]c3ncc(Cl)cc23)ncc1O [Compound 340]
- Ki [1]: ≥ 100 nM
- Ki [2]: ≥ 500 nM

Source: patent publication US8163917B2, “Azaindoles useful as inhibitors of Janus kinases” (Vertex Pharmaceuticals Incorporated, priority 2006, dated 2012)
